Experiments:
[1] = HPN-100-009 (Example 2): urinary PAGN concentrations on first full day of dosing; type: in vivo, human
Procedure: Assessment of Urinary PAGN Concentrations on the First Full Day of RAVICTI® Dosing.
End point description. Urinary PAGN concentration was measured through urine collection. PK Evaluable Population: all subjects from the safety population with individual concentration-time profiles that allow computation of meaningful PK parameter values. End point timeframe: Hour 0 and between 0.5 and 1 hour, 1.5 and 2.5 hours, 4 and 6 hours, 7.5 and 8.5 hours, and between 12 and 24 hours after the first dose of the day on Day 1 for stable subjects and on Day 2 for subjects in HAC.

UCD patients = test: HPN-100-009 (Example 2): rate of hyperammonemic crises (HACs); type: in vivo, human; conditions: Age 2 Months to <2 Years
Source text: HPN-100-009 is an open-label study consisting of a transition period to HPN-100, followed by a safety extension period for at least 6 months and up to 24 months of treatment with HPN-100, depending on age at enrollment. It is designed to capture information important for evaluating safety, pharmacokinetics and efficacy in young children. Subjects eligible for this study included patients ranging from newborn to <2 years of age with either a diagnosed or clinically suspected UCD. Ten infant and toddler (28 days to 23 months) subjects were enrolled in this study.
Subjects aged 2 months to <2 years received RAVICTI® Oral Liquid administered just prior to breastfeeding or intake of formula or food. The recommended dosing regimen is 3-6 times per day depending on feeding schedule and at the discretion of the Investigator. The starting dose of RAVICTI® was based on UCD status (newly diagnosed, or already stable on sodium phenylbutyrate [NaPBA] and/or sodium benzoate [NaBz]) and whether a hyperammonemic crisis is present. Subsequently, the dose was adjusted based on clinical and/or ammonia results, according to an algorithm provided in the protocol.
Rate of Hyperammonemic Crises (HACs) During the First 6 Months on RAVICTI®.
End point description. A HAC was defined having signs and symptoms consistent with hyperammonemia (such as but not limited to frequent vomiting, nausea, headache, lethargy, irritability, combativeness, somnolence) associated with high blood ammonia and requiring medical intervention. Rate of HACs prior to enrollment was calculated as sum of (number of HAC)/sum of (subject age in days at the time of enrollment or 365 days, whichever was less) across all subjects in the corresponding group. Rate of HACs per 6 months during the safety extension was calculated as sum of (number of HAC)/sum of (days during first 6 months starting on Day 8 or number days on RAVICTI®, whichever was less) across all subjects in the corresponding group. Safety population: all enrolled subjects who received any amount of study medication. […]

Structure (SMILES): O=C(CCCc1ccccc1)OCC(COC(=O)CCCc1ccccc1)OC(=O)CCCc1ccccc1 [RAVICTI, benzenebutanoic acid, 1′,1″-(1,2,3-propanetriyl) ester]
- Urinary PAGN concentration ([1]; Age 2 Months to <2 Years, Hour 0.5 to 1): 4140.2 (±4398.8) μg/mL
- Urinary PAGN concentration ([1]; Age 2 Months to <2 Years, Hour 1.5 to 2.5): 3145.2 (±5044.5) μg/mL
- Urinary PAGN concentration ([1]; Age 2 Months to <2 Years, Hour 4 to 6): 5201.6 (±4546.6) μg/mL
- Urinary PAGN concentration ([1]; Age 2 Months to <2 Years, Hour 7.5 to 8.5): 4290 (±3147.2) μg/mL
- Urinary PAGN concentration ([1]; Age 2 Months to <2 Years, Hour 12 to 24): 7561.1 (±6955.7) μg/mL
- Urinary PAGN concentration ([1]; Age 2 months to <2 years, Hour 0): 3478.3 (±1775.4) μg/mL
- Rate of HACs During Safety Extension (UCD patients; Day 8 up to Month 6, n = 9): 0.006
- Rate of HACs During Transition (Days 1-7) (UCD patients; n = 10): 0
- Rate of HACs Prior to Enrollment (UCD patients; up to 365 days prior to enrollment, n = 10): 0.11

— patent US10668040B2, “Treatment of urea cycle disorders in neonates and infants” (Horizon Therapeutics, LLC, priority 2017, dated 2020)
